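Briefly, cells in 96-well plates were exposed to five compound concentrations for 48 h, and endpoints were estimated by linear interpolation. GI50 is the concentration that inhibits growth by half. At the TGI there is no net growth.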
What was measured:
Experiment in all cases: growth of human tumour cells (NCI), 48 h
NCI-H226 lung = system: NCI-H226 lung
CAKI-1 renal = system: CAKI-1 renal
786-0 renal = system: 786-0 renal
SK-OV-3 ovarian = system: SK-OV-3 ovarian
K-562 leukemia = system: K-562 leukemia
SN12C renal = system: SN12C renal
EKVX NSCLC = system: EKVX NSCLC
KM12 colon = system: KM12 colon
UO-31 renal = system: UO-31 renal
NCI-H23 lung = system: NCI-H23 lung
OVCAR-5 ovarian = system: OVCAR-5 ovarian
UACC-62 melanoma = system: UACC-62 melanoma
PC-3 prostate = system: PC-3 prostate
RPMI-8226 leukemia = system: RPMI-8226 leukemia
SNB-75 CNS = system: SNB-75 CNS
SF-539 CNS = system: SF-539 CNS
NCI/ADR-RES ovarian = system: NCI/ADR-RES ovarian
SK-MEL-28 melanoma = system: SK-MEL-28 melanoma
M14 melanoma = system: M14 melanoma
LOX IMVI melanoma = system: LOX IMVI melanoma
BT-549 breast = system: BT-549 breast
SK-MEL-5 melanoma = system: SK-MEL-5 melanoma
SW-620 colon = system: SW-620 colon
SF-268 CNS = system: SF-268 CNS
HS 578T breast = system: HS 578T breast
SR leukemia = system: SR leukemia
MOLT-4 leukemia = system: MOLT-4 leukemia
HCC-2998 colon = system: HCC-2998 colon
OVCAR-8 ovarian = system: OVCAR-8 ovarian
MCF7 breast = system: MCF7 breast
HT29 colon = system: HT29 colon
HCT-15 colon = system: HCT-15 colon
HL-60(TB) leukemia = system: HL-60(TB) leukemia
HOP-92 NSCLC = system: HOP-92 NSCLC
U251 CNS = system: U251 CNS
CCRF-CEM leukemia = system: CCRF-CEM leukemia
A498 renal = system: A498 renal
SNB-19 CNS = system: SNB-19 CNS
OVCAR-4 ovarian = system: OVCAR-4 ovarian
NCI-H460 lung = system: NCI-H460 lung
A549 NSCLC = system: A549 NSCLC
OVCAR-3 ovarian = system: OVCAR-3 ovarian
IGROV1 ovarian = system: IGROV1 ovarian
ACHN renal = system: ACHN renal
TK-10 renal = system: TK-10 renal
DU-145 prostate = system: DU-145 prostate
COLO 205 colon = system: COLO 205 colon
HOP-62 NSCLC = system: HOP-62 NSCLC
SK-MEL-2 melanoma = system: SK-MEL-2 melanoma
HCT-116 colon = system: HCT-116 colon
MDA-MB-231 breast = system: MDA-MB-231 breast
UACC-257 melanoma = system: UACC-257 melanoma
RXF 393 renal = system: RXF 393 renal
T-47D breast = system: T-47D breast
NCI-H522 lung = system: NCI-H522 lung
SF-295 CNS = system: SF-295 CNS
MALME-3M melanoma = system: MALME-3M melanoma

## CC1C2=C(CC(C)(C)CC2=O)NC2=C1C(=O)CC(C)(C)C2
NCI-H226 lung
  TGI: > 100 µM
CAKI-1 renal
  TGI: > 100 µM
786-0 renal
  TGI: > 100 µM
SK-OV-3 ovarian
  TGI: > 100 µM
K-562 leukemia
  TGI: > 100 µM
SN12C renal
  TGI: > 100 µM
EKVX NSCLC
  TGI: > 100 µM
KM12 colon
  TGI: > 100 µM
UO-31 renal
  TGI: > 100 µM
NCI-H23 lung
  TGI: > 100 µM
OVCAR-5 ovarian
  TGI: > 100 µM
UACC-62 melanoma
  TGI: > 100 µM
PC-3 prostate
  TGI: > 100 µM
RPMI-8226 leukemia
  TGI: > 100 µM
SNB-75 CNS
  TGI: > 100 µM
SF-539 CNS
  TGI: > 100 µM
NCI/ADR-RES ovarian
  TGI: > 100 µM
SK-MEL-28 melanoma
  TGI: > 100 µM
M14 melanoma
  TGI: > 100 µM
LOX IMVI melanoma
  TGI: > 100 µM
BT-549 breast
  TGI: > 100 µM
SK-MEL-5 melanoma
  TGI: > 100 µM
SW-620 colon
  TGI: > 100 µM
SF-268 CNS
  TGI: > 100 µM
HS 578T breast
  TGI: > 100 µM
SR leukemia
  TGI: > 100 µM
MOLT-4 leukemia
  TGI: > 100 µM
HCC-2998 colon
  TGI: > 100 µM
OVCAR-8 ovarian
  TGI: > 100 µM
MCF7 breast
  TGI: > 100 µM
HT29 colon
  TGI: > 100 µM
HCT-15 colon
  TGI: > 100 µM
HL-60(TB) leukemia
  TGI: > 100 µM
HOP-92 NSCLC
  TGI: > 100 µM
U251 CNS
  TGI: > 100 µM
CCRF-CEM leukemia
  TGI: > 100 µM
A498 renal
  TGI: > 100 µM
SNB-19 CNS
  TGI: > 100 µM
OVCAR-4 ovarian
  TGI: > 100 µM
NCI-H460 lung
  TGI: > 100 µM
A549 NSCLC
  TGI: > 100 µM
OVCAR-3 ovarian
  TGI: > 100 µM
IGROV1 ovarian
  TGI: > 100 µM
ACHN renal
  TGI: > 100 µM
TK-10 renal
  TGI: > 100 µM

## Cc1cc(Cc2cc(C)c(O)c(C)c2)cc(C)c1O
NCI-H226 lung
  GI50: 19.2 µM
  TGI: 77.1 µM
CAKI-1 renal
  GI50: 3.74 µM
  TGI: 21.6 µM
786-0 renal
  GI50: 10.4 µM
  TGI: 40.4 µM
SK-OV-3 ovarian
  GI50: 6.47 µM
  TGI: 52.4 µM
K-562 leukemia
  GI50: 1.76 µM
  TGI: 18.8 µM
SN12C renal
  GI50: 5.12 µM
  TGI: > 100 µM
KM12 colon
  GI50: 3.93 µM
  TGI: 15.7 µM
UO-31 renal
  GI50: 7.65 µM
  TGI: 96.6 µM
NCI-H23 lung
  GI50: 11.3 µM
  TGI: 74 µM
OVCAR-5 ovarian
  GI50: 17.8 µM
  TGI: 61.9 µM
DU-145 prostate
  GI50: 14.6 µM
  TGI: > 100 µM
UACC-62 melanoma
  GI50: 5.41 µM
  TGI: 62.6 µM
PC-3 prostate
  GI50: 14.8 µM
  TGI: > 100 µM
RPMI-8226 leukemia
  GI50: 3.89 µM
  TGI: 30.9 µM
SNB-75 CNS
  GI50: 2.59 µM
  TGI: 25.9 µM
SF-539 CNS
  GI50: 3.25 µM
  TGI: 14.2 µM
NCI/ADR-RES ovarian
  GI50: 3.95 µM
  TGI: 48.5 µM
SK-MEL-28 melanoma
  GI50: 11.4 µM
  TGI: 66.5 µM
COLO 205 colon
  GI50: 32.9 µM
  TGI: > 100 µM
HOP-62 NSCLC
  GI50: 7.01 µM
  TGI: 89.6 µM
SK-MEL-2 melanoma
  GI50: 3.65 µM
  TGI: 11 µM
M14 melanoma
  GI50: 3 µM
  TGI: 13.2 µM
LOX IMVI melanoma
  GI50: 6.64 µM
  TGI: 33.3 µM
BT-549 breast
  GI50: 3.78 µM
  TGI: 17.6 µM
SK-MEL-5 melanoma
  GI50: 4.53 µM
  TGI: 17.5 µM
SW-620 colon
  GI50: 3.03 µM
  TGI: > 100 µM
HCT-116 colon
  GI50: 4.12 µM
  TGI: 15.2 µM
SF-268 CNS
  GI50: 7.85 µM
  TGI: 86.2 µM
MDA-MB-231 breast
  GI50: 6.85 µM
  TGI: 38.3 µM
HS 578T breast
  GI50: 2.58 µM
  TGI: 12.5 µM
SR leukemia
  GI50: 2.65 µM
  TGI: 20.2 µM
MOLT-4 leukemia
  GI50: 3.82 µM
  TGI: 27.8 µM
UACC-257 melanoma
  GI50: 6.94 µM
  TGI: 62.2 µM
HCC-2998 colon
  GI50: 16.3 µM
  TGI: 82.1 µM
OVCAR-8 ovarian
  GI50: 7.59 µM
  TGI: > 100 µM
MCF7 breast
  GI50: 3.83 µM
  TGI: 53.7 µM
HT29 colon
  GI50: 8.87 µM
  TGI: 33.8 µM
HCT-15 colon
  GI50: 3.49 µM
  TGI: > 100 µM
HL-60(TB) leukemia
  GI50: 2.89 µM
  TGI: 9.86 µM
HOP-92 NSCLC
  GI50: 4.35 µM
  TGI: 29.4 µM
RXF 393 renal
  GI50: 6.47 µM
  TGI: 36.4 µM
U251 CNS
  GI50: 3.68 µM
  TGI: 19.6 µM
CCRF-CEM leukemia
  GI50: 4.14 µM
  TGI: > 100 µM
A498 renal
  GI50: 11.9 µM
  TGI: 35.5 µM
T-47D breast
  GI50: 4.64 µM
  TGI: 72 µM
NCI-H522 lung
  GI50: 3.49 µM
  TGI: 15.4 µM
SNB-19 CNS
  GI50: 7.81 µM
  TGI: > 100 µM
OVCAR-4 ovarian
  GI50: 29 µM
  TGI: > 100 µM
NCI-H460 lung
  GI50: 3.33 µM
  TGI: 11.8 µM
SF-295 CNS
  GI50: 3.92 µM
  TGI: 21.7 µM
MALME-3M melanoma
  GI50: 9.12 µM
  TGI: 59.2 µM
A549 NSCLC
  GI50: 4.32 µM
  TGI: 38.2 µM
OVCAR-3 ovarian
  GI50: 3.43 µM
  TGI: 10.5 µM
IGROV1 ovarian
  GI50: 11.3 µM
  TGI: > 100 µM
ACHN renal
  GI50: 12.1 µM
  TGI: > 100 µM
TK-10 renal
  GI50: 11.2 µM
  TGI: 56.8 µM

Reference: PubChem BioAssay (NCI)
